# Assay results: ChEMBL document CHEMBL3864157, “The synthesis and antistaphylococcal activity of dehydroabietic acid derivatives: Modifications at C-12” (2016)
# Legend:
# Assay type in all cases: functional
# Staphylococcus aureus [1] = assay: Antibacterial activity against Staphylococcus aureus Newman
# Staphylococcus aureus [2] = assay: Antibacterial activity against aminoglycosides/tetracycline-resistant Staphylococcus aureus NRS-1
# Staphylococcus aureus [3] = assay: Antibacterial activity against erythromycin-resistant Staphylococcus aureus NRS-70
# Staphylococcus aureus [4] = assay: Antibacterial activity against oxacillin/tetracycline-resistant Staphylococcus aureus NRS-100
# Staphylococcus aureus [5] = assay: Antibacterial activity against gentamicin-resistant Staphylococcus aureus NRS-108
# Staphylococcus aureus [6] = assay: Antibacterial activity against linezolid-resistant Staphylococcus aureus NRS-271
Structure (SMILES),MIC (Staphylococcus aureus [1]),MIC (Staphylococcus aureus [2]),MIC (Staphylococcus aureus [3]),MIC (Staphylococcus aureus [4]),MIC (Staphylococcus aureus [5]),MIC (Staphylococcus aureus [6])
C#CCON=C(c1ccc(C(F)(F)F)cc1)c1cc2c(cc1C(C)C)CC[C@H]1[C@](C)(C(=O)O)CCC[C@]21C,> 50 µg/mL,–,–,–,–,–
CC(C)c1cc2c(cc1C(=NOCc1ccccc1)c1ccccc1)[C@@]1(C)CCC[C@@](C)(C(=O)O)[C@@H]1CC2,> 50 µg/mL,–,–,–,–,–
C#CCON=C(c1ccc(Cl)cc1Cl)c1cc2c(cc1C(C)C)CC[C@H]1[C@](C)(C(=O)O)CCC[C@]21C,1.56 to 3.13 µg/mL,> 25 µg/mL,1.56 to 3.13 µg/mL,12.5 to 25 µg/mL,12.5 µg/mL,12.5 to 25 µg/mL
C#CCON=C(c1cc2c(cc1C(C)C)CC[C@H]1[C@](C)(C(=O)O)CCC[C@]21C)c1ccccc1C(F)(F)F,1.56 to 3.13 µg/mL,> 25 µg/mL,> 25 µg/mL,> 25 µg/mL,> 25 µg/mL,> 25 µg/mL
CC(C)c1cc2c(cc1C(=NO)c1ccc(Cl)cc1Cl)[C@@]1(C)CCC[C@@](C)(C(=O)O)[C@@H]1CC2,1.56 to 3.13 µg/mL,3.13 µg/mL,1.56 to 3.13 µg/mL,3.13 µg/mL,1.56 to 3.13 µg/mL,1.56 to 3.13 µg/mL
CON=C(c1cc2c(cc1C(C)C)CC[C@H]1[C@](C)(C(=O)O)CCC[C@]21C)c1ccccc1C(F)(F)F,0.39 to 0.78 µg/mL,3.13 to 6.25 µg/mL,1.56 to 3.13 µg/mL,3.13 to 6.25 µg/mL,6.25 to 12.5 µg/mL,1.56 to 3.13 µg/mL
CC(C)c1cc2c(cc1C(=NO)c1ccccc1)[C@@]1(C)CCC[C@@](C)(C(=O)O)[C@@H]1CC2,10 to 12.5 µg/mL,–,–,–,–,–
CC(C)c1cc2c(cc1C(=NO)c1cccc(C(F)(F)F)c1)[C@@]1(C)CCC[C@@](C)(C(=O)O)[C@@H]1CC2,1.56 to 3.13 µg/mL,3.13 to 6.25 µg/mL,1.56 to 3.13 µg/mL,3.13 to 6.25 µg/mL,3.13 to 6.25 µg/mL,3.13 to 6.25 µg/mL
C=CCON=C(c1ccc(Cl)cc1Cl)c1cc2c(cc1C(C)C)CC[C@H]1[C@](C)(C(=O)O)CCC[C@]21C,1.56 to 3.13 µg/mL,> 25 µg/mL,1.56 to 3.13 µg/mL,12.5 to 25 µg/mL,12.5 µg/mL,> 25 µg/mL
C#CCON=C(c1ccccc1)c1cc2c(cc1C(C)C)CC[C@H]1[C@](C)(C(=O)O)CCC[C@]21C,2.5 µg/mL,6.25 to 12.5 µg/mL,1.56 to 2.5 µg/mL,3.13 µg/mL,3.13 to 6.25 µg/mL,3.13 to 6.25 µg/mL
CON=C(c1ccc(C(F)(F)F)cc1)c1cc2c(cc1C(C)C)CC[C@H]1[C@](C)(C(=O)O)CCC[C@]21C,> 50 µg/mL,–,–,–,–,–
CON=C(c1cccc(C(F)(F)F)c1)c1cc2c(cc1C(C)C)CC[C@H]1[C@](C)(C(=O)O)CCC[C@]21C,1.56 to 3.13 µg/mL,> 25 µg/mL,> 25 µg/mL,> 25 µg/mL,> 25 µg/mL,> 25 µg/mL
CC(C)c1cc2c(cc1C(=NO)c1ccc(C(F)(F)F)cc1)[C@@]1(C)CCC[C@@](C)(C(=O)O)[C@@H]1CC2,> 50 µg/mL,–,–,–,–,–
C#CCON=C(c1cccc(C(F)(F)F)c1)c1cc2c(cc1C(C)C)CC[C@H]1[C@](C)(C(=O)O)CCC[C@]21C,1.56 to 3.13 µg/mL,> 25 µg/mL,> 25 µg/mL,> 25 µg/mL,> 25 µg/mL,> 25 µg/mL
C=CCON=C(c1cc2c(cc1C(C)C)CC[C@H]1[C@](C)(C(=O)O)CCC[C@]21C)c1ccccc1C(F)(F)F,0.78 to 1.56 µg/mL,12.5 to 25 µg/mL,1.56 to 3.13 µg/mL,6.25 to 12.5 µg/mL,6.25 to 12.5 µg/mL,> 50 µg/mL
CON=C(c1ccc(Cl)cc1Cl)c1cc2c(cc1C(C)C)CC[C@H]1[C@](C)(C(=O)O)CCC[C@]21C,1.56 to 3.13 µg/mL,> 25 µg/mL,1.56 to 3.13 µg/mL,> 25 µg/mL,> 25 µg/mL,> 25 µg/mL
CC(C)c1cc2c(cc1C(=NO)c1ccccc1C(F)(F)F)[C@@]1(C)CCC[C@@](C)(C(=O)O)[C@@H]1CC2,1.56 to 3.13 µg/mL,1.56 to 3.13 µg/mL,1.56 to 3.13 µg/mL,1.56 to 3.13 µg/mL,1.56 to 3.13 µg/mL,1.56 to 3.13 µg/mL
CC(C)C(=NOCc1ccccc1)c1cc2c(cc1C(C)C)CC[C@H]1[C@](C)(C(=O)O)CCC[C@]21C,> 50 µg/mL,–,–,–,–,–
C=CCON=C(c1ccccc1)c1cc2c(cc1C(C)C)CC[C@H]1[C@](C)(C(=O)O)CCC[C@]21C,1.25 to 2.5 µg/mL,2.5 to 3.13 µg/mL,1.25 to 1.56 µg/mL,1.56 to 2.5 µg/mL,1.56 to 2.5 µg/mL,1.56 to 2.5 µg/mL
CCCC(=NOCc1ccccc1)c1cc2c(cc1C(C)C)CC[C@H]1[C@](C)(C(=O)O)CCC[C@]21C,> 50 µg/mL,–,–,–,–,–
CC(C)c1ccc2c(c1)CC[C@H]1[C@](C)(C(=O)O)CCC[C@]21C [DEHYDROABIETIC ACID],12.5 to 20 µg/mL,12.5 to 25 µg/mL,12.5 to 25 µg/mL,12.5 to 25 µg/mL,12.5 to 25 µg/mL,12.5 to 25 µg/mL
CN(C)[C@@H]1C(O)=C(C(N)=O)C(=O)[C@@]2(O)C(O)=C3C(=O)c4c(O)cccc4[C@@](C)(O)[C@H]3C[C@@H]12 [TETRACYCLINE],< 0.2 µg/mL,> 25 µg/mL,< 0.2 µg/mL,< 0.2 µg/mL,< 0.2 µg/mL,< 0.2 µg/mL
CN[C@H](CC(C)C)C(=O)N[C@H]1C(=O)N[C@@H](CC(N)=O)C(=O)N[C@H]2C(=O)N[C@H]3C(=O)N[C@H](C(=O)N[C@H](C(=O)O)c4cc(O)cc(O)c4-c4cc3ccc4O)[C@H](O)c3ccc(c(Cl)c3)Oc3cc2cc(c3O[C@@H]2O[C@H](CO)[C@@H](O)[C@H](O)[C@H]2O[C@H]2C[C@](C)(N)[C@H](O)[C@H](C)O2)Oc2ccc(cc2Cl)[C@H]1O [VANCOMYCIN],0.78 to 1.56 µg/mL,1.56 to 3.13 µg/mL,0.2 to 0.39 µg/mL,0.39 to 0.78 µg/mL,0.39 to 0.78 µg/mL,0.39 to 0.78 µg/mL

# Now from value to compound, other results behind:
MIC (Staphylococcus aureus [1]),Structure (SMILES),MIC (Staphylococcus aureus [2]),MIC (Staphylococcus aureus [3]),MIC (Staphylococcus aureus [4]),MIC (Staphylococcus aureus [5]),MIC (Staphylococcus aureus [6])
12.5 to 25 µg/mL,C=CCON=C(c1cc2c(cc1C(C)C)CC[C@H]1[C@](C)(C(=O)O)CCC[C@]21C)C1CCCCC1,–,–,–,–,–
> 50 µg/mL,C#CCO/N=C(\C)c1cc2c(cc1C(C)C)CC[C@H]1[C@](C)(C(=O)O)CCC[C@]21C,–,–,–,–,–
> 50 µg/mL,C=CCON=C(c1ccc(C(F)(F)F)cc1)c1cc2c(cc1C(C)C)CC[C@H]1[C@](C)(C(=O)O)CCC[C@]21C,–,–,–,–,–
> 50 µg/mL,C/C(=N\O)c1cc2c(cc1C(C)C)CC[C@H]1[C@](C)(C(=O)O)CCC[C@]21C,–,–,–,–,–
15 to 20 µg/mL,C#CCON=C(CCC)c1cc2c(cc1C(C)C)CC[C@H]1[C@](C)(C(=O)O)CCC[C@]21C,–,–,–,–,–
> 50 µg/mL,C#CCON=C(c1cc2c(cc1C(C)C)CC[C@H]1[C@](C)(C(=O)O)CCC[C@]21C)C1CCCCC1,–,–,–,–,–
10 to 12.5 µg/mL,C=CCON=C(CCC)c1cc2c(cc1C(C)C)CC[C@H]1[C@](C)(C(=O)O)CCC[C@]21C,–,–,–,–,–
30 to 40 µg/mL,CO/N=C(/c1cc2c(cc1C(C)C)CC[C@H]1[C@](C)(C(=O)O)CCC[C@]21C)C(C)C,–,–,–,–,–
30 to 40 µg/mL,C=CCO/N=C(\C)c1cc2c(cc1C(C)C)CC[C@H]1[C@](C)(C(=O)O)CCC[C@]21C,–,–,–,–,–
40 to 50 µg/mL,CCCC(=NO)c1cc2c(cc1C(C)C)CC[C@H]1[C@](C)(C(=O)O)CCC[C@]21C,–,–,–,–,–
10 to 12.5 µg/mL,C#CCON=C(c1cc2c(cc1C(C)C)CC[C@H]1[C@](C)(C(=O)O)CCC[C@]21C)C(C)C,–,–,–,–,–
6.25 to 12.5 µg/mL,CC(C)c1cc2c(cc1C(=NO)c1cccs1)[C@@]1(C)CCC[C@@](C)(C(=O)O)[C@@H]1CC2,–,–,–,–,–
20 to 25 µg/mL,C#CCON=C(CC)c1cc2c(cc1C(C)C)CC[C@H]1[C@](C)(C(=O)O)CCC[C@]21C,–,–,–,–,–
12.5 to 25 µg/mL,CC(C)c1cc2c(cc1C(=NO)C1CCCCC1)[C@@]1(C)CCC[C@@](C)(C(=O)O)[C@@H]1CC2,–,–,–,–,–
25 to 50 µg/mL,C=CCON=C(c1cccs1)c1cc2c(cc1C(C)C)CC[C@H]1[C@](C)(C(=O)O)CCC[C@]21C,–,–,–,–,–
> 50 µg/mL,CCC(=NOC)c1cc2c(cc1C(C)C)CC[C@H]1[C@](C)(C(=O)O)CCC[C@]21C,–,–,–,–,–
5 µg/mL,CON=C(c1ccccc1)c1cc2c(cc1C(C)C)CC[C@H]1[C@](C)(C(=O)O)CCC[C@]21C,–,–,–,–,–
40 to 50 µg/mL,CCCC(=NOC)c1cc2c(cc1C(C)C)CC[C@H]1[C@](C)(C(=O)O)CCC[C@]21C,–,–,–,–,–
> 50 µg/mL,CC(C)C(=NO)c1cc2c(cc1C(C)C)CC[C@H]1[C@](C)(C(=O)O)CCC[C@]21C,–,–,–,–,–
> 50 µg/mL,CCC(=NOCc1ccccc1)c1cc2c(cc1C(C)C)CC[C@H]1[C@](C)(C(=O)O)CCC[C@]21C,–,–,–,–,–
10 to 12.5 µg/mL,C=CCON=C(c1cc2c(cc1C(C)C)CC[C@H]1[C@](C)(C(=O)O)CCC[C@]21C)C(C)C,–,–,–,–,–
> 50 µg/mL,C/C(=N\OCc1ccccc1)c1cc2c(cc1C(C)C)CC[C@H]1[C@](C)(C(=O)O)CCC[C@]21C,–,–,–,–,–
6.25 to 12.5 µg/mL,CON=C(c1cccs1)c1cc2c(cc1C(C)C)CC[C@H]1[C@](C)(C(=O)O)CCC[C@]21C,–,–,–,–,–
> 50 µg/mL,C=CCON=C(CC)c1cc2c(cc1C(C)C)CC[C@H]1[C@](C)(C(=O)O)CCC[C@]21C,–,–,–,–,–
1.56 to 3.13 µg/mL,C#CCON=C(c1cccs1)c1cc2c(cc1C(C)C)CC[C@H]1[C@](C)(C(=O)O)CCC[C@]21C,–,–,–,–,–
> 50 µg/mL,CCC(=NO)c1cc2c(cc1C(C)C)CC[C@H]1[C@](C)(C(=O)O)CCC[C@]21C,–,–,–,–,–
> 50 µg/mL,C=CCON=C(c1cccc(C(F)(F)F)c1)c1cc2c(cc1C(C)C)CC[C@H]1[C@](C)(C(=O)O)CCC[C@]21C,–,–,–,–,–
> 50 µg/mL,CON=C(c1cc2c(cc1C(C)C)CC[C@H]1[C@](C)(C(=O)O)CCC[C@]21C)C1CCCCC1,–,–,–,–,–
